From US20260226068A1, “IMIDAZOTRIAZINE IL-17A MODULATORS AND USES THEREOF” (DICE ALPHA, INC., priority 2023, published 2026)

Assays:
IL-17A/A = target: T1, IL-17A/A (Homo sapiens, UniProt Q16552); experiment: IL-17A/A HEK-Blue cell assay (SEAP reporter); format: cell-based; conditions: HEK-Blue IL-17A reporter cells, IL17A/A 5 ng/mL, 20 hours, SEAP read at A630; read-out: HEK-Blue IL17AA (IC50 for IL-17A/A inhibition)
T1 construct: purchased Genscript Z03228
T1 sequence (Q16552 24-155): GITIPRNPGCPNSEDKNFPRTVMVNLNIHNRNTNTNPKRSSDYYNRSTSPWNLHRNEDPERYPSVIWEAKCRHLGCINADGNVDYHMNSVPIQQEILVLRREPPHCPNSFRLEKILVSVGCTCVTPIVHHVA

IL-17A/F = target: T2, IL-17A/F (Homo sapiens, UniProt Q16552+Q96PD4); experiment: IL-17A/F HEK-Blue cell assay (SEAP reporter); format: cell-based; conditions: HEK-Blue IL-17A reporter cells, IL17A/F 5 ng/mL, 20 hours, SEAP read at A630; read-out: HEK-Blue IL17AF (IC50 for IL-17A/F inhibition)
T2 construct: purchased R&D Systems
T2 sequence (Q16552 24-155): T1 sequence (Q16552 24-155)
T2 sequence (Q96PD4 31-163): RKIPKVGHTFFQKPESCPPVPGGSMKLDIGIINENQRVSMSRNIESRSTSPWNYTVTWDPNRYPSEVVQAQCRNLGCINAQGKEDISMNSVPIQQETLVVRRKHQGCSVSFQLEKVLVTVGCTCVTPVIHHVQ

Row | SMILES | IC50 (IL-17A/A) [nM] | IC50 (IL-17A/F) [nM]
1 | CCn1nccc1C(=O)N[C@H](c1cn2nc(C[C@H]3C[C@@H](C(F)(F)F)CNC3=O)c(C3CCOC3)nc2n1)[C@@H]1CCCC(F)(F)C1 (single isomer, unassigned) [Compound 72] | < 100 | 100 to 1000
2 | CCn1nccc1C(=O)N[C@H](c1cn2nc(C[C@H]3C[C@H](C(F)(F)F)CNC3=O)c(C3CCOCC3)nc2n1)C1CCC(F)(F)CC1 [Compound 140, N-((1S)-(4,4-difluorocyclohexyl)(2-(((3R,5S)-2-oxo-5-(trifluoromethyl)piperidin-3-yl)methyl)-3-(tetrahydro-2H-pyran-4-yl)imidazo[1,2-b][1,2,4]triazin-6-yl)methyl)-1-ethyl-1H-pyrazole-5-carboxamide] | < 100 | 100 to 1000
3 | CCn1nccc1C(=O)N[C@H](c1cn2nc(C[C@H]3C[C@@H](C(F)(F)F)CNC3=O)c(C3(C)CCOCC3)nc2n1)C1CCC(F)(F)CC1 [Compound 164, N-((1S)-(4,4-difluorocyclohexyl)(3-(4-methyltetrahydro-2H-pyran-4-yl)-2-(((3R,5R)-2-oxo-5-(trifluoromethyl)piperidin-3-yl)methyl)imidazo[1,2-b][1,2,4]triazin-6-yl)methyl)-1-ethyl-1H-pyrazole-5-carboxamide] | < 100 | 100 to 1000
4 | CCc1nonc1C(=O)N[C@H](c1cn2nc(CC3C[C@@H](C(F)(F)F)CNC3=O)cnc2n1)C1CCC(F)(F)CC1 (stereo partly drawn) [Compound 11, N—((S)-(4,4-difluorocyclohexyl)(2-(((5R)-2-oxo-5-(trifluoromethyl)piperidin-3-yl)methyl)imidazo[1,2-b][1,2,4]triazin-6-yl)methyl)-4-ethyl-1,2,5-oxadiazole-3-carboxamide] | 100 to 1000 | > 1000
5 | CCn1nccc1C(=O)N[C@H](c1cn2nc(C[C@H]3C[C@@H](C(F)(F)F)CNC3=O)c(C3CCOCC3)nc2n1)[C@@H]1CCCC(F)(F)C1 [Compound 67, N—((S)—((R)-3,3-difluorocyclohexyl)(2-(((3R,5R)-2-oxo-5-(trifluoromethyl)piperidin-3-yl)methyl)-3-(tetrahydro-2H-pyran-4-yl)imidazo[1,2-b][1,2,4]triazin-6-yl)methyl)-1-ethyl-1H-pyrazole-5-carboxamide] | < 100 | < 100
6 | CCn1nccc1C(=O)N[C@H](c1cn2nc(C[C@H]3C[C@@H](C(F)(F)F)CNC3=O)cnc2n1)[C@@H]1CCCC(F)(F)C1 (single isomer, unassigned) [Compound 31] | 100 to 1000 | > 1000
7 | CCn1nccc1C(=O)N[C@H](c1cn2nc(C[C@H]3C[C@H](C(F)(F)F)CNC3=O)c(C3CCOCC3)nc2n1)[C@H]1CC[C@H](C)CC1 [Compound 155, 1-ethyl-N-((1S)-((1r,4S)-4-methylcyclohexyl)(2-(((3R,5S)-2-oxo-5-(trifluoromethyl)piperidin-3-yl)methyl)-3-(tetrahydro-2H-pyran-4-yl)imidazo[1,2-b][1,2,4]triazin-6-yl)methyl)-1H-pyrazole-5-carboxamide] | < 100 | 100 to 1000
8 | CCn1nccc1C(=O)N[C@H](c1cn2nc(CC3CC(F)(F)CNC3=O)c(N3CCOCC3)nc2n1)C1CCC(F)(F)CC1 (single isomer, unassigned) [Compound 65] | < 100 | > 1000
9 | CCn1nccc1C(=O)N[C@H](c1cn2nc(C[C@H]3C[C@@H](C(F)(F)F)CNC3=O)c(C3CCOCC3)nc2n1)[C@H]1CC[C@H](C)CC1 [Compound 78, 1-ethyl-N-((1S)-((1r,4S)-4-methylcyclohexyl)(2-(((3R,5R)-2-oxo-5-(trifluoromethyl)piperidin-3-yl)methyl)-3-(tetrahydro-2H-pyran-4-yl)imidazo[1,2-b][1,2,4]triazin-6-yl)methyl)-1H-pyrazole-5-carboxamide] | < 100 | < 100
10 | O=C(N[C@H](c1cn2nc(C[C@H]3C[C@@H](C(F)(F)F)CNC3=O)c(C3CCOC3)nc2n1)C1CCC(F)(F)CC1)c1nonc1C1CC1 (single isomer, unassigned) [Compound 135] | < 100 | > 1000

Further lines, results first:

Row | IC50 (IL-17A/A) [nM] | IC50 (IL-17A/F) [nM] | SMILES
11 | < 100 | 100 to 1000 | CCn1nccc1C(=O)N[C@H](c1cn2nc(C[C@H]3C[C@@H](C(F)(F)F)CNC3=O)c(N3CCN(C)C4(CC4)C3)nc2n1)C1CCC(F)(F)CC1 [Compound 357, N—((S)-(4,4-difluorocyclohexyl)(3-(4-methyl-4,7-diazaspiro[2.5]octan-7-yl)-2-(((3R,5R)-2-oxo-5-(trifluoromethyl)piperidin-3-yl)methyl)imidazo[1,2-b][1,2,4]triazin-6-yl)methyl)-1-ethyl-1H-pyrazole-5-carboxamide]
12 | < 100 | > 1000 | CCn1nccc1C(=O)N[C@H](c1cn2nc(C[C@H]3C[C@@H](C(F)(F)F)CNC3=O)c(CN3CCCC4(CC4)C3)nc2n1)C1CCC(F)(F)CC1 [Compound 347, N—((S)-(3-((5-azaspiro[2.5]octan-5-yl)methyl)-2-(((3R,5R)-2-oxo-5-(trifluoromethyl)piperidin-3-yl)methyl)imidazo[1,2-b][1,2,4]triazin-6-yl)(4,4-difluorocyclohexyl)methyl)-1-ethyl-1H-pyrazole-5-carboxamide]
13 | < 100 | 100 to 1000 | CCn1nccc1C(=O)N[C@H](c1cn2nc(C[C@H]3C[C@@H](C(F)(F)F)CNC3=O)c(C3(F)CCOCC3)nc2n1)C1CCC(F)(F)CC1 [Compound 212, N-((1S)-(4,4-difluorocyclohexyl)(3-(4-fluorotetrahydro-2H-pyran-4-yl)-2-(((3R,5R)-2-oxo-5-(trifluoromethyl)piperidin-3-yl)methyl)imidazo[1,2-b][1,2,4]triazin-6-yl)methyl)-1-ethyl-1H-pyrazole-5-carboxamide]
14 | < 100 | > 1000 | CCn1nccc1C(=O)N[C@H](c1cn2nc(C[C@H]3C[C@@H](C(F)(F)F)CNC3=O)c(C3(OC)CCC(F)(F)CC3)nc2n1)C1CCC(F)(F)CC1 [Compound 270, N—((S)-(3-(4,4-difluoro-1-methoxycyclohexyl)-2-(((3R,5R)-2-oxo-5-(trifluoromethyl)piperidin-3-yl)methyl)imidazo[1,2-b][1,2,4]triazin-6-yl)(4,4-difluorocyclohexyl)methyl)-1-ethyl-1H-pyrazole-5-carboxamide]
15 | < 100 | > 1000 | CCn1ncnc1C(=O)N[C@H](c1cn2nc(C[C@H]3C[C@@H](C(F)(F)F)CNC3=O)c(C(C)C)nc2n1)C1CCC(F)(F)CC1 [Compound 386, N—((S)-(4,4-difluorocyclohexyl)(3-isopropyl-2-(((3R,5R)-2-oxo-5-(trifluoromethyl)piperidin-3-yl)methyl)imidazo[1,2-b][1,2,4]triazin-6-yl)methyl)-1-ethyl-1H-1,2,4-triazole-5-carboxamide]
16 | < 100 | > 1000 | CCn1nccc1C(=O)N[C@H](c1cn2nc(C[C@H]3C[C@@H](C(F)(F)F)CNC3=O)c(C3CCOCC3)nc2n1)C1CC2(C1)CC(F)(F)C2 [Compound 197]
17 | < 100 | 100 to 1000 | CCc1nc2nc([C@@H](NC(=O)c3ccnn3CC)C3CCC(F)(F)CC3)cn2nc1C[C@H]1C[C@@H](C(F)(F)F)CNC1=O [Compound 167, N-((1S)-(4,4-difluorocyclohexyl)(3-ethyl-2-(((3R,5R)-2-oxo-5-(trifluoromethyl)piperidin-3-yl)methyl)imidazo[1,2-b][1,2,4]triazin-6-yl)methyl)-1-ethyl-1H-pyrazole-5-carboxamide]
18 | < 100 | 100 to 1000 | CCn1nccc1C(=O)N[C@H](c1cn2nc(C[C@H]3C[C@@H](C(F)(F)F)CNC3=O)c(N3CCOC(COC)C3)nc2n1)C1CCC(F)(F)CC1 (stereo partly drawn) [Compound 416, N-((1S)-(4,4-difluorocyclohexyl)(3-(2-(methoxymethyl)morpholino)-2-(((3R,5R)-2-oxo-5-(trifluoromethyl)piperidin-3-yl)methyl)imidazo[1,2-b][1,2,4]triazin-6-yl)methyl)-1-ethyl-1H-pyrazole-5-carboxamide]
19 | < 100 | < 100 | CCn1nccc1C(=O)N[C@H](c1cn2nc(C[C@H]3C[C@@H](C(F)(F)F)CNC3=O)c(C3COCCC3(F)F)nc2n1)C1CCC(F)(F)CC1 (single isomer, unassigned) [Compound 259]
20 | < 100 | 100 to 1000 | O=C(N[C@H](c1cn2nc(C[C@H]3C[C@@H](C(F)(F)F)CNC3=O)c(C3CCOCC3)nc2n1)C1CCC(F)(F)CC1)c1ccnn1CC(F)F [Compound 187, N-((1S)-(4,4-difluorocyclohexyl)(2-(((3R,5R)-2-oxo-5-(trifluoromethyl)piperidin-3-yl)methyl)-3-(tetrahydro-2H-pyran-4-yl)imidazo[1,2-b][1,2,4]triazin-6-yl)methyl)-1-(2,2-difluoroethyl)-1H-pyrazole-5-carboxamide]
21 | < 100 | 100 to 1000 | Cn1nccc1C(=O)N[C@H](c1cn2nc(C[C@H]3C[C@@H](C(F)(F)F)CNC3=O)c(C3CCOCC3)nc2n1)C1CCCCC1 [Compound 405]
22 | 100 to 1000 | > 1000 | CCn1nccc1C(=O)N[C@H](c1cn2nc(C[C@H]3C[C@@H](C(F)(F)F)CNC3=O)c(CN3CCC4(CC4)C3)nc2n1)C1CCC(F)(F)CC1 [Compound 344, N—((S)-(3-((5-azaspiro[2.4]heptan-5-yl)methyl)-2-(((3R,5R)-2-oxo-5-(trifluoromethyl)piperidin-3-yl)methyl)imidazo[1,2-b][1,2,4]triazin-6-yl)(4,4-difluorocyclohexyl)methyl)-1-ethyl-1H-pyrazole-5-carboxamide]
